Results published in ChEMBL document CHEMBL1201862, “PubChem BioAssay data set” (2004).
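1) Cells in 96-well plates. 2) Compound, 48 h, 5 concentrations. 3) Linear interpolation between surrounding doses. 4) Unreached endpoint = highest concentration. At the GI50, growth is halved.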 The source made the active and inactive calls. No stated cut-off is given here; in the data, active = GI50 up to about 1.1 µM and inactive = higher.

Columns and labels:
Assay in all cases: NCI tumour cell line growth inhibition, 48 h
[1] = tested on: 786-0
[2] = tested on: A498
[3] = tested on: A549
[4] = tested on: ACHN
[5] = tested on: BT-549
[6] = tested on: CAKI-1
[7] = tested on: CCRF-CEM
[8] = tested on: COLO 205
[9] = tested on: DU-145
[10] = tested on: EKVX
[11] = tested on: HCC 2998
[12] = tested on: HCT-116
[13] = tested on: HCT-15
[14] = tested on: HL-60
[15] = tested on: HOP-62
[16] = tested on: HOP-92
[17] = tested on: HT-29
[18] = tested on: Hs-578T
[19] = tested on: IGROV-1
[20] = tested on: K562
[21] = tested on: KM12
[22] = tested on: LOX IMVI
[23] = tested on: M14
[24] = tested on: MCF7
[25] = tested on: MDA-MB-231
[26] = tested on: MDA-MB-435
[27] = tested on: MDA-N
[28] = tested on: MOLT-4
[29] = tested on: Malme-3M
[30] = tested on: NCI-H226
[31] = tested on: NCI-H460
[32] = tested on: NCI-H522
[33] = tested on: NCI/ADR-RES
[34] = tested on: OVCAR-3
[35] = tested on: OVCAR-4
[36] = tested on: OVCAR-5
[37] = tested on: OVCAR-8
[38] = tested on: PC-3
[39] = tested on: RPMI-8226
[40] = tested on: RXF 393
[41] = tested on: SF-268
[42] = tested on: SF-295
[43] = tested on: SF-539
[44] = tested on: SK-MEL-28
[45] = tested on: SK-MEL-2
[46] = tested on: SK-MEL-5
[47] = tested on: SK-OV-3
[48] = tested on: SN12C
[49] = tested on: SNB-19
[50] = tested on: SNB-75
[51] = tested on: SR
[52] = tested on: SW-620
[53] = tested on: T47D
[54] = tested on: TK-10
[55] = tested on: U-251
[56] = tested on: UACC-257
[57] = tested on: UACC-62
[58] = tested on: UO-31

Measured: GI50

Nc1ccc(-c2nc3cc(F)ccc3s2)cc1Cl
134 nM: [13]
inactive: [1] 25.8 µM | [2] 3.07 µM | [3] 7.46 µM | [4] 1.57 µM | [5] 8.15 µM | [6] 8.67 µM | [7] > 22.9 µM | [9] 63.2 µM | [10] 1.17 µM | [14] 3.64 µM | [15] 8.36 µM | [16] 25.5 µM | [18] 27.1 µM | [20] 14.8 µM | [21] 8.99 µM | [22] > 77.4 µM | [23] > 85.1 µM | [25] 5.08 µM | [26] > 100 µM | [27] > 100 µM | [28] > 35.6 µM | [29] 20.1 µM | [32] 20.5 µM | [33] 48.9 µM | [35] 17.1 µM | [37] 38.6 µM | [38] 20 µM | [39] > 55.1 µM | [40] 24 µM | [41] 25.5 µM | [42] 23.5 µM | [43] 20.2 µM | [44] > 85.5 µM | [45] 41.1 µM | [46] 25.5 µM | [47] 19.1 µM | [48] 23.3 µM | [49] 32.4 µM | [50] 20.5 µM | [52] > 100 µM | [55] 20 µM | [56] 72.6 µM | [57] 39.7 µM | [58] 31.8 µM
active: [8] 454 nM | [11] < 10 nM | [12] 78.2 nM | [17] 692 nM | [19] < 10 nM | [24] 10.2 nM | [30] 109 nM | [31] 36.4 nM | [34] 49 nM | [36] 21.9 nM | [51] 38.2 nM | [53] 61.5 nM | [54] 35.7 nM
